Measurements published in US11161843B2, “Fused heterocyclic compound and composition containing same” (Sumitomo Chemical Company, Limited, priority 2017, dated 2021).

Tests used:
[1] = test system: brown planthopper (Nilaparvata lugens); assay: Test Example 3: spray on rice seedling, brown planthopper larvae; format: in vivo; conditions: 500 ppm, spray 10 mL/seedling, 3rd instar larvae, counted after 6 days
Description: The test compounds were made to a formulation according to the method described in the Formulation Example 5, and thereto was added water containing 0.03 v/v % of a spreader to prepare a diluted solution containing a prescribed concentration of the test compound.
Rice (Oryza sativa) seedling (on the developmental stage of the second true leaf) was planted in a container, and the diluted solutions were sprayed into the seedling in a ratio of 10 mL/seedling. Thereafter, 20 of 3rd instar larvae of brown planthopper (Nilaparvata lugens) were released onto the rice leaves. After 6 days, the number of the surviving insects was examined, and the mortality was calculated by the following equation. Mortality (%)={1−the number of the surviving insects/20}×100

cotton aphid = assay: Test Example 2: irrigation into plant foot of cucumber seedling, cotton aphid inoculated after 7 days; format: in vivo, Aphis gossypii; conditions: 1,000 ppm, 5 mL/seedling irrigated into plant foot, aphids inoculated after 7 days, counted after additional 6 days
Description: The test compounds were made to a formulation according to the method described in the Formulation Example 5, and thereto was added water to prepare a diluted solution containing a prescribed concentration of the test compound. Cucumber seedling (on the developmental stage of the second true leaf) was planted in a container, and the diluted solutions in the ratio on 5 mL/seedling were irrigated into the plant foot. After 7 days, approximately 30 of cotton aphid (all stages of life) were inoculated onto the cucumber leaves. After additional 6 days, the number of the surviving insects was examined, and the controlling value was calculated by the following equation. Controlling value (%)={1−(Cb×Tai)/(Cai×Tb)}*100 wherein the symbols in the formula represent the following descriptions. Cb: Number of the test insects in untreated group; Cai: Number of the surviving insects at the time of the investigation in untreated group; Tb: Number of the test insects in treated group; Tai: Number of the surviving insects at the time of the investigation in treated group; Here the “untreated group” represents a group where a similar treatment procedure to that of the treated group except not using the test compound is done.

Question: For `CCS(=O)(=O)c1ccc2nncn2c1-c1ccc(OCC(F)(F)C(F)(F)F)cn1` [compound 4], which controlling value [1] is on record?
Answer: ≥ 90%

Question: And the controlling value (cotton aphid)?
Answer: ≥ 90%
